According to patent publication US12384923B2, “Method of treatment of a surface” (Conopco, Inc., priority 2018, dated 2025):

System: Raphidocelis subcapitata
Experiment: Algal growth inhibition by lactam (absorbance at 680 nm of algal cultures in 6-well plates)
Type: cell-based
Protocol: The freshwater algae Raphidocelis subcapitata was purchased from Culture Collection of Algae and Protozoa (CCAP 278/4). The algae was cultivated in commercial Gibco BG-11 Media. A bespoke built UV exposure cabinet was used for cultivation. The UV bulbs were replaced by light bulbs (Osram L 8W I535 white). The experiments were performed in sterile 6-well microtiter plates made from polystyrene under static conditions and room temperature. The light-dark cycle was 9 h dark and 15 h light. The quantification was done spectrophotometrically in the 6-well plate by using absorbance measurements. A wavelength scan was done to measure the absorbance maximum of the algaea. […] Since the algaea tend to sediment the plate was obitally shaken to bring the cells in suspension before measuring. Measuring was performed using a Varioscan plate reader for microtiter plates.
In this experiment, the algal cultures were treated with lactam at levels of 10 μM to 200 μM as well as two control plates, one untreated, and one treated with solvent (DMSO) only. The specific levels of lactam measured were 10 μM, 20 μM, 30 μM, 40 μM, 50 μM, 100 μM, 150 μM, 200 μM would equate to levels of from 2 ppm (10 μM) to 40 ppm (200 μM), and to wt. % of 0.0002 wt. % (10 μM) to 0.004 wt. % (200 μM). The lactam was provided in a DMSO solvent to the plates. The rate of growth of the algal culture was measured after 12 days by absorbance value.
In this experiment, the algal cultures were treated with lactam at levels of 0.01 μM to 10 μM as well as two control plates, one untreated, and one treated with solvent (DMSO) only. The specific levels of lactam measured were 0.01 μM, 0.1 μM, 1 μM, 10 μM, this would equate to levels of from 0.002 ppm also defined as 2 ppb (0.01 μM) to 2 ppm (10 μM), and to wt. % of 0.0000002 wt. % (0.01 μM) to 0.0002 wt. % (10 μM). The lactam was provided in a DMSO solvent to the plates. The rate of growth of the algal culture was measured after 6 days by absorbance value.

C=C1NC(=O)C=C1c1ccc(Cl)cc1 [4-(4-chlorophenyl)-5-methylene-pyrrol-2-one]
Absorbance (680 nm) (Example 2, lactam 10 μM, after 12 days): 0.1
Absorbance (680 nm) (Example 2, lactam 20 μM, after 12 days): 0.1
Absorbance (680 nm) (Example 2, lactam 30 μM, after 12 days): 0.1
Absorbance (680 nm) (Example 2, lactam 40 μM, after 12 days): 0.1
Absorbance (680 nm) (Example 2, lactam 50 μM, after 12 days): 0.1
Absorbance (680 nm) (Example 2, lactam 100 μM, after 12 days): 0.1
Absorbance (680 nm) (Example 2, lactam 150 μM, after 12 days): 0.1
Absorbance (680 nm) (Example 2, lactam 200 μM, after 12 days): 0.1
algal growth inhibition (in words) (Example 2, lactam level of 10 μM (0.0002 wt. %) and above, 12 days): very effective algal growth inhibition
Absorbance (680 nm) (Example 3, lactam 0.01 μM, after 6 days): 0.8
Absorbance (680 nm) (Example 3, lactam 0.1 μM, after 6 days): 0.9
algal growth inhibition (in words) (Example 3, lactam 1 μM, 6 days): no algal growth inhibition was seen
Absorbance (680 nm) (Example 3, lactam 1 μM, after 6 days): 0.9
Absorbance (680 nm) (Example 3, lactam 10 μM, after 6 days): 0.1
algal growth inhibition (in words) (Example 3, lactam amount even lower than 1 μM (0.1 μM, 0.01 μM), 6 days): no algal growth inhibition was seen
algal growth inhibition (in words) (Example 3, lactam level of 10 μM (0.0002 wt. %) and above, 6 days): very effective algal growth inhibition
